Residues, ends and D or L forms follow the SMILES beside them.

A short description of this series: Transdermal penetration through ex vivo mouse skin in a single-chamber diffusion cell, content by BCA kit. Format: in vitro ADME, Kunming mice. Conditions: collagen peptide 5 mg/ml in 0.9% NaCl, diffusion area 2.0 cm^2, 37.5° C. Put shortly:
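Abdominal skin from Kunming mice (20–22 g), glycerol-treated and stored at −20° C up to 7 days, mounted in a 2.0 cm² diffusion cell with 0.9% NaCl receiver at 37.5° C, 100 rpm. Peptides applied at 5 mg/ml in 0.9% NaCl; permeated protein in receiver measured by BCA after 24 h.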

The compound `CC[C@H](C)[C@H](NC(=O)CN)C(=O)N[C@@H](C)C(=O)NCC(=O)N[C@@H](CCC(N)=O)C(=O)N[C@@H](CCCNC(=N)N)C(=O)NCC(=O)N[C@H](C(=O)N[C@H](C(=O)NCC(=O)N[C@@H](CC(C)C)C(=O)N1CCC[C@H]1C(=O)NCC(=O)N[C@@H](CCC(N)=O)C(=O)N[C@@H](CCCNC(=N)N)C(=O)NCC(=O)N[C@@H](CCC(=O)O)C(=O)N[C@@H](CCCNC(=N)N)C(=O)NCC(=O)N[C@@H](Cc1ccccc1)C(=O)N1CCC[C@H]1C(=O)NCC(=O)N[C@@H](CC(C)C)C(=O)N1CCC[C@H]1C(=O)NCC(=O)N1CCC[C@H]1C(=O)N[C@@H](CO)C(=O)NCC(=O)N[C@@H](CCC(=O)O)C(=O)N1CCC[C@H]1C(=O)NCC(=O)N[C@@H](CCCCN)C(=O)N[C@@H](CCC(N)=O)C(=O)NCC(=O)N1CCC[C@H]1C(=O)N[C@@H](CO)C(=O)O)C(C)C)C(C)C` [compound 20] (H-GIAGQRGVVGLPGQRGERGFPGLPGPSGEPGKQGPS-OH; N-terminus and C-terminus assumed) yielded a 24h penetration amount of 2509.11 µg.

`CSCC[C@H](NC(=O)[C@@H]1CCCN1C(=O)CNC(=O)[C@@H]1CCCN1C(=O)[C@@H]1CCCN1C(=O)CNC(=O)[C@H](CCCNC(=N)N)NC(=O)[C@H](CCC(=O)O)NC(=O)CNC(=O)[C@H](CO)NC(=O)[C@H](C)NC(=O)CNC(=O)[C@H](CO)NC(=O)[C@@H]1CCCN1C(=O)CNC(=O)[C@H](CCC(N)=O)NC(=O)[C@H](CCCCN)NC(=O)CNC(=O)[C@@H]1CCCN1C(=O)[C@H](CCC(=O)O)NC(=O)CNC(=O)[C@H](CO)NC(=O)[C@@H]1CCCN1C(=O)CNC(=O)[C@@H]1CCCN1C(=O)[C@H](CC(C)C)NC(=O)CNC(=O)[C@@H]1CCCN1C(=O)[C@H](Cc1ccccc1)NC(=O)CNC(=O)[C@H](CCCNC(=N)N)NC(=O)[C@H](CCC(=O)O)NC(=O)CN)C(=O)NCC(=O)N1CCC[C@H]1C(=O)N1CCC[C@H]1C(=O)O` [compound 21] (H-GERGFPGLPGPSGEPGKQGPSGASGERGPPGPMGPP-OH; N-terminus and C-terminus assumed) showed a 24h penetration amount of 2199.78 µg.

On to `CC(C)C[C@H](NC(=O)CNC(=O)[C@@H](NC(=O)[C@@H](NC(=O)CN)C(C)C)C(C)C)C(=O)N1CCC[C@H]1C(=O)NCC(=O)N[C@@H](CCC(N)=O)C(=O)N[C@@H](CCCNC(=N)N)C(=O)NCC(=O)N[C@@H](CCC(=O)O)C(=O)N[C@@H](CCCNC(=N)N)C(=O)NCC(=O)N[C@@H](Cc1ccccc1)C(=O)N1CCC[C@H]1C(=O)NCC(=O)N[C@@H](CC(C)C)C(=O)N1CCC[C@H]1C(=O)NCC(=O)N1CCC[C@H]1C(=O)N[C@@H](CO)C(=O)NCC(=O)N[C@@H](CCC(=O)O)C(=O)N1CCC[C@H]1C(=O)NCC(=O)N[C@@H](CCCCN)C(=O)N[C@@H](CCC(N)=O)C(=O)NCC(=O)N1CCC[C@H]1C(=O)N[C@@H](CO)C(=O)NCC(=O)N[C@@H](C)C(=O)N[C@@H](CO)C(=O)NCC(=O)N[C@@H](CCC(=O)O)C(=O)N[C@@H](CCCNC(=N)N)C(=O)O` [compound 22] (H-GVVGLPGQRGERGFPGLPGPSGEPGKQGPSGASGER-OH; N-terminus and C-terminus assumed), for which the 24h penetration amount was 2092.23 µg.

`CSCC[C@H](NC(=O)[C@@H]1CCCN1C(=O)CNC(=O)[C@@H]1CCCN1C(=O)[C@@H]1CCCN1C(=O)CNC(=O)[C@H](CCCNC(=N)N)NC(=O)[C@H](CCC(=O)O)NC(=O)CNC(=O)[C@H](CO)NC(=O)[C@H](C)NC(=O)CNC(=O)[C@H](CO)NC(=O)[C@@H]1CCCN1C(=O)CNC(=O)[C@H](CCC(N)=O)NC(=O)[C@H](CCCCN)NC(=O)CNC(=O)[C@@H]1CCCN1C(=O)[C@H](CCC(=O)O)NC(=O)CN)C(=O)NCC(=O)N1CCC[C@H]1C(=O)N1CCC[C@H]1C(=O)NCC(=O)N[C@@H](CC(C)C)C(=O)N[C@@H](C)C(=O)NCC(=O)N1CCC[C@H]1C(=O)N1CCC[C@H]1C(=O)NCC(=O)N[C@@H](CCC(=O)O)C(=O)N[C@@H](CO)C(=O)NCC(=O)N[C@@H](CCCNC(=N)N)C(=O)N[C@@H](CCC(=O)O)C(=O)O` [compound 23] (H-GEPGKQGPSGASGERGPPGPMGPPGLAGPPGESGRE-OH; N-terminus and C-terminus assumed) registered a 24h penetration amount of 2323.45 µg.

As for `CSCC[C@H](NC(=O)[C@@H]1CCCN1C(=O)CNC(=O)[C@@H]1CCCN1C(=O)[C@@H]1CCCN1C(=O)CNC(=O)[C@H](CCCNC(=N)N)NC(=O)[C@H](CCC(=O)O)NC(=O)CN)C(=O)NCC(=O)N1CCC[C@H]1C(=O)N1CCC[C@H]1C(=O)NCC(=O)N[C@@H](CC(C)C)C(=O)N[C@@H](C)C(=O)NCC(=O)N1CCC[C@H]1C(=O)N1CCC[C@H]1C(=O)NCC(=O)N[C@@H](CCC(=O)O)C(=O)N[C@@H](CO)C(=O)NCC(=O)N[C@@H](CCCNC(=N)N)C(=O)N[C@@H](CCC(=O)O)C(=O)NCC(=O)N[C@@H](C)C(=O)N1CCC[C@H]1C(=O)NCC(=O)N[C@@H](C)C(=O)N[C@@H](CCC(=O)O)C(=O)NCC(=O)N[C@@H](CO)C(=O)N1CCC[C@H]1C(=O)NCC(=O)N[C@@H](CCCNC(=N)N)C(=O)N[C@@H](CC(=O)O)C(=O)O` [compound 24] (H-GERGPPGPMGPPGLAGPPGESGREGAPGAEGSPGRD-OH; N-terminus and C-terminus assumed), the 24h penetration amount worked out at 2234.67 µg.

Take `CC(C)C[C@H](NC(=O)[C@H](CC(=O)O)NC(=O)CNC(=O)[C@@H]1CCCN1C(=O)[C@@H](NC(=O)CNC(=O)[C@H](CCC(N)=O)NC(=O)[C@H](CCC(=O)O)NC(=O)CNC(=O)[C@@H]1CCCN1C(=O)[C@H](CCCCN)NC(=O)CNC(=O)[C@H](C)NC(=O)[C@H](CCC(=O)O)NC(=O)CNC(=O)[C@@H]1CCCN1C(=O)[C@@H]1CCCN1C(=O)CN)C(C)C)C(=O)NCC(=O)N[C@@H](C)C(=O)N1CCC[C@H]1C(=O)NCC(=O)N1CCC[C@H]1C(=O)N[C@@H](CO)C(=O)NCC(=O)N[C@@H](C)C(=O)N[C@@H](CCCNC(=N)N)C(=O)NCC(=O)N[C@@H](CCC(=O)O)C(=O)N[C@@H](CCCNC(=N)N)C(=O)NCC(=O)N[C@@H](Cc1ccccc1)C(=O)N1CCC[C@H]1C(=O)NCC(=O)N[C@@H](CCC(=O)O)C(=O)N[C@@H](CCCNC(=N)N)C(=O)O` [compound 25] (H-GPPGEAGKPGEQGVPGDLGAPGPSGARGERGFPGER-OH; N-terminus and C-terminus assumed): the 24h penetration amount turned out to be 2255.78 µg.

The compound `CC(C)[C@H](NC(=O)CNC(=O)[C@H](CCCNC(=N)N)NC(=O)[C@H](CCC(=O)O)NC(=O)CNC(=O)[C@@H]1CCCN1C(=O)[C@H](Cc1ccccc1)NC(=O)CNC(=O)[C@H](CCCNC(=N)N)NC(=O)[C@H](CCC(=O)O)NC(=O)CNC(=O)[C@H](CCCNC(=N)N)NC(=O)[C@H](C)NC(=O)CNC(=O)[C@H](CO)NC(=O)[C@@H]1CCCN1C(=O)CNC(=O)[C@@H]1CCCN1C(=O)[C@H](C)NC(=O)CN)C(=O)N[C@@H](CCC(N)=O)C(=O)NCC(=O)N1CCC[C@H]1C(=O)N1CCC[C@H]1C(=O)NCC(=O)N1CCC[C@H]1C(=O)N[C@@H](C)C(=O)NCC(=O)N1CCC[C@H]1C(=O)N[C@@H](CCCNC(=N)N)C(=O)NCC(=O)N[C@@H](C)C(=O)N[C@@H](CC(N)=O)C(=O)NCC(=O)N[C@@H](C)C(=O)N1CCC[C@H]1C(=O)O` [compound 26] (H-GAPGPSGARGERGFPGERGVQGPPGPAGPRGANGAP-OH; N-terminus and C-terminus assumed) returned a 24h penetration amount of 2054.99 µg.

For the origin of these results see patent US20250152675A1, “I-TYPE RECOMBINANT COLLAGEN WITH HIGH TRANSDERMAL ABSORBABILITY, AND USE THEREOF” (XI'AN GIANT BIOGENE TECHNOLOLGY CO., LTD, priority 2022, published 2025).
